From paper PMC12125979, “Complete xylan utilization pathway and regulation mechanisms involved in marine algae degradation by cosmopolitan marine and human gut microbiota” (The ISME Journal, 2025)
Positions count from the first letter of the chain named.

T1: BxlE (Streptomyces thermoviolaceus, UniProt Q76BU9)
T1 construct: gene bxlD
T1 sequence (Q76BU9 1-436): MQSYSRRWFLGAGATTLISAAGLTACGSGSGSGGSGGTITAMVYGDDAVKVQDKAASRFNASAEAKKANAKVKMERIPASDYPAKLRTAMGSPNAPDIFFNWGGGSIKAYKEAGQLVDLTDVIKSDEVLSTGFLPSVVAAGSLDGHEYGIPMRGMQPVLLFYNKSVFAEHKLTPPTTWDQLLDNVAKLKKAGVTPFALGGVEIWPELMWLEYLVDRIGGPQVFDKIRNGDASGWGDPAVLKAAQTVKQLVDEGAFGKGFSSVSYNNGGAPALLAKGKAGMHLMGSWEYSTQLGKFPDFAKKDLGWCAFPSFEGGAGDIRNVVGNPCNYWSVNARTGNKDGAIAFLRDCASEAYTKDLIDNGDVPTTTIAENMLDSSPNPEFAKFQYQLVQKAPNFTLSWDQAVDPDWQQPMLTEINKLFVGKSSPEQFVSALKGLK

B1: PxylC (dsDNA)
DNA 1: GGAAATAAATAGAATAAATGTGGTGAGAGATATAATAATACTTGCCATAG
DNA 2: CTATGGCAAGTATTATTATATCTCTCACCACATTTATTCTATTTATTTCC
B2: PxylT (dsDNA)
DNA 1: ACATTTAGCAAATAGGTGAAATTTGGTATCAAAAATCATAATTGATGGCG
DNA 2: CGCCATCAATTATGATTTTTGATACCAAATTTCACCTATTTGCTAAATGT
B3: PxylT-m2 (dsDNA)
DNA 1: B2 DNA 1 with A10G, A11C, A31G, A32C
DNA 2: B2 DNA 2 with T19G, T20C, T40G, T41C
B4: Pxyn26B (dsDNA)
DNA 1: ACACAAAAAAAATATAAAAATATAATCAGAAAAAATCATAATTGATATTG
DNA 2: CAATATCAATTATGATTTTTTCTGATTATATTTTTATATTTTTTTTGTGT
B5: PxylB (dsDNA)
DNA 1: CAATTATGTTTTTTTACAGGTGAATTCACGGATTTCACGAGTGAGTCTGA
DNA 2: TCAGACTCACTCGTGAAATCCGTGAATTCACCTGTAAAAAAACATAATTG

Columns and labels:
[1] = biological target: XylRA; assay: isothermal titration calorimetry; conditions: 10 mM Tris-HCl pH 8.0, 100 mM NaCl, 25°C; effector
[2] = biological target: T2, XylC; assay: isothermal titration calorimetry; assay type: binding, Vibrio sp. EA2; conditions: 10 mM Tris-HCl pH 8.0, 100 mM NaCl, 25°C
T2 construct: construct borders only in supplement

[3] = biological target: T1, BxlE; assay: biochemical; set-up: isothermal titration calorimetry binding of xylooligosaccharides to recombinant substrate-binding proteins
[4] = biological target: XylRA (Vibrio sp. EA2, UniProt A0A090T8X9 1-401); assay: EMSA; xylose; EMSA: 25 ng biotin-labelled probe, 0.1-0.5 nmol XylRA in 20 uL EMSA/Gel-shift binding buffer (Beyotime), xylose present, room temperature; salt and pH not stated; conditions: protein: recombinant; tags: C-terminal His (pET-22b); chain copies: 2; label: 5'-biotin on strand 1; blunt

Molecule	Kd [3] [nM]	binding result [4]	other results
OC1OC[C@@H](O)[C@H](O)[C@H]1O (stereo partly shown) [X, xylose]			Kd [1]: 5.1 µM
OC1OC[C@@H](O)[C@H](O[C@@H]2OC[C@@H](O)[C@H](O[C@@H]3OC[C@@H](O)[C@H](O[C@@H]4OC[C@@H](O)[C@H](O)[C@H]4O)[C@H]3O)[C@H]2O)[C@H]1O (stereo partly drawn) [β-1,3X4, β-1,3-xylotetraose]			Kd [2]: 1000 nM
OC1OC[C@@H](O[C@@H]2OC[C@@H](O)[C@H](O)[C@H]2O)[C@H](O)[C@H]1O (stereo partly drawn) [β-1,4X2]	15.1 ± 4.04		
OC1OC[C@@H](O[C@@H]2OC[C@@H](O[C@@H]3OC[C@@H](O)[C@H](O)[C@H]3O)[C@H](O)[C@H]2O)[C@H](O)[C@H]1O (stereo partly drawn) [β-1,4X3]	6.28 ± 1.93		
OC1OC[C@@H](O[C@@H]2OC[C@@H](O[C@@H]3OC[C@@H](O[C@@H]4OC[C@@H](O)[C@H](O)[C@H]4O)[C@H](O)[C@H]3O)[C@H](O)[C@H]2O)[C@H](O)[C@H]1O (stereo partly drawn) [β-1,4X4]	13.2 ± 1.93		
B1		binds	
B2		binds	
B3		no binding	
B4		binds	
B5		binds	
